For test [1], the target named is LIM domain kinase 1 (Homo sapiens) (UniProt P53667). Nature of the test: Selectivity interaction (Ambit KINOMEscan and KiNATiv profiling in Jurkat cells) EUB0000090b LIMK1. It is filed as cell-based. The conditions noted are these: at 1 µM.
Test [2] has as its target T1, Phosphatidylinositol 5-phosphate 4-kinase type-2 gamma (Homo sapiens) (UniProt Q8TBX8).
T1 sequence (whole entry): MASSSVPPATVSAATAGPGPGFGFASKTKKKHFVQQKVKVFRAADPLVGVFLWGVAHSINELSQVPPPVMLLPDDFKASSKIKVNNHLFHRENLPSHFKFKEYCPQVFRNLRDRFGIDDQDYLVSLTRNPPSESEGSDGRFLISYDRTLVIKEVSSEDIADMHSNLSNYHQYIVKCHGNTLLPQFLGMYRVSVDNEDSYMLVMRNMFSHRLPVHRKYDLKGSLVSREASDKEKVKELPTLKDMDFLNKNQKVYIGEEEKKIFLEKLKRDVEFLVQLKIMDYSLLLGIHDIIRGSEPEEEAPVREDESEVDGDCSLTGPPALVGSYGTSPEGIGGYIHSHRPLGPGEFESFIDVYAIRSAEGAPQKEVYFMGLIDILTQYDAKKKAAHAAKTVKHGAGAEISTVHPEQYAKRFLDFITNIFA
Nature of the test: Selectivity interaction (KinomeScan (DiscoverX)) EUB0001619a PIP4K2C. The conditions noted are these: at 1 µM.

The target in test [3] is Platelet-derived growth factor receptor alpha (Homo sapiens, UniProt P16234). Nature of the test: Selectivity interaction (Kinase panel (33PanQinase(R) Activity Assay)) EUB0000877a PDGFRA.
Platelet-derived growth factor receptor alpha, sequence (P16234 whole entry): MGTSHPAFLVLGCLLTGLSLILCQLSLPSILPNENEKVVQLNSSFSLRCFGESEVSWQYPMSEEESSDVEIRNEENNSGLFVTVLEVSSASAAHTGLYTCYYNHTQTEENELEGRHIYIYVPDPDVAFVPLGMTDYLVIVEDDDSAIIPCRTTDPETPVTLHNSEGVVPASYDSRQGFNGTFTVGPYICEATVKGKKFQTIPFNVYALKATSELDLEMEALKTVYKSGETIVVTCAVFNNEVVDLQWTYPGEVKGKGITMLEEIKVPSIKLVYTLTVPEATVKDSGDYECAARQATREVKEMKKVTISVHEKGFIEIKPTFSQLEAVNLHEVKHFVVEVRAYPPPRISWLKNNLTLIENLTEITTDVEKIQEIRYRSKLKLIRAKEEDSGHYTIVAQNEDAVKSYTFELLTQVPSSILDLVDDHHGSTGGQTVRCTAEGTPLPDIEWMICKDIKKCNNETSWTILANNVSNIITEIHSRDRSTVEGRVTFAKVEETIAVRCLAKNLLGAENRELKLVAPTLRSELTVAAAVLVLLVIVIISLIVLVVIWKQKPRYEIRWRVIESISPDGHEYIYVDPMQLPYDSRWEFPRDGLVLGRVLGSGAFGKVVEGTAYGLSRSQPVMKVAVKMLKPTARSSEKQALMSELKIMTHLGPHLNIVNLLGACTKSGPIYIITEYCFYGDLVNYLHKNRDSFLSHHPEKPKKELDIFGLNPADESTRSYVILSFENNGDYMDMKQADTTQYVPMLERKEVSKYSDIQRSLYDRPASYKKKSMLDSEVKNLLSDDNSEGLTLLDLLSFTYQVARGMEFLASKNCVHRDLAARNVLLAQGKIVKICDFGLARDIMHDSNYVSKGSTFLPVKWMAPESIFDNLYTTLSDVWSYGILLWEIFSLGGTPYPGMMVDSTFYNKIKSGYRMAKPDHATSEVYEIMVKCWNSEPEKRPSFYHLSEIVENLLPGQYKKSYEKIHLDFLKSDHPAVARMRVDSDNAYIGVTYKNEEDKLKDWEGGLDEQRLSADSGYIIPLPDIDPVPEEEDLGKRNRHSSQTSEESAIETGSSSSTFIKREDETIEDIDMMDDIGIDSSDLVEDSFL
Another test concerns the target Aurora kinase B (Homo sapiens, UniProt Q96GD4). As to the kind of experiment: Selectivity interaction (ActivX KiNativ screen (kinase selectivity in THP-1 cell lysates)) EUB0000639a AURKB. In kind it is subcellular. The following applies: lysate, at 0.01 µM.
The target in test [4] is T2, Serine/threonine-protein kinase LATS2 (Homo sapiens) (UniProt Q9NRM7).
T2 sequence (whole entry): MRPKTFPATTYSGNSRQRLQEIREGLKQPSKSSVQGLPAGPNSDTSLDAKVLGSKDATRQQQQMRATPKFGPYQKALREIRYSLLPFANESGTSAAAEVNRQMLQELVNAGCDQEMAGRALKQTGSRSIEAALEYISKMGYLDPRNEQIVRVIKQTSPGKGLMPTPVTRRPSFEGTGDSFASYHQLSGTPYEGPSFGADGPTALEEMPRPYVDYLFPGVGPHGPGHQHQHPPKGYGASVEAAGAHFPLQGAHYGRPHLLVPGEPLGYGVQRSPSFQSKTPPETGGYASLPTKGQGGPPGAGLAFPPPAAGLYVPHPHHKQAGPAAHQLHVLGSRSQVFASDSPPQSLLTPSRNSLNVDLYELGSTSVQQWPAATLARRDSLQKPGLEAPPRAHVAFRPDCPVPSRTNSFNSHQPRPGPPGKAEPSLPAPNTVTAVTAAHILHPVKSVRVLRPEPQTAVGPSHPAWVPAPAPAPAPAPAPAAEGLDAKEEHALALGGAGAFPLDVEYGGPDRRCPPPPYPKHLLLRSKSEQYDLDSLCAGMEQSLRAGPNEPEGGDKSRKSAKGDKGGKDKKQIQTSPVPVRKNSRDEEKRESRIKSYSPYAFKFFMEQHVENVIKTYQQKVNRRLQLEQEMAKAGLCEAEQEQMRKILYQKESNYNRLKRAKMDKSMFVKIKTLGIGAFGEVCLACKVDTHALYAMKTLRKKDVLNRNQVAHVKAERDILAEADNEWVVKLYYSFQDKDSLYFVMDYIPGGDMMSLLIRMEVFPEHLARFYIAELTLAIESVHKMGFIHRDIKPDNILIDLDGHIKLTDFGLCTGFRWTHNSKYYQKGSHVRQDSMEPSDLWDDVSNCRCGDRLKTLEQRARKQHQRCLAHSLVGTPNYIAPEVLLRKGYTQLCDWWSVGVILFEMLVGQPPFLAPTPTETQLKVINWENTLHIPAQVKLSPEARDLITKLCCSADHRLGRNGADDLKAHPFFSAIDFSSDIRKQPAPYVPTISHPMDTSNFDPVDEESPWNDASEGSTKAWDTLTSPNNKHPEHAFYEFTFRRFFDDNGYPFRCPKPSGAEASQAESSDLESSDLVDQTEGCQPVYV
Nature of the test: Selectivity interaction (KinomeScan (DiscoverX)) EUB0001049a LATS2. The conditions noted are these: at 1 µM.

Test [5] has as its target Dual specificity tyrosine-phosphorylation-regulated kinase 1B (Homo sapiens, UniProt Q9Y463). As to the kind of experiment: Selectivity interaction (KinomeScan (DiscoverX)) EUB0000092b DYRK1B. The following applies: at 10 µM.
For test [6], the target named is AP2-associated protein kinase 1 (Homo sapiens, UniProt Q2M2I8). As to the kind of experiment: Selectivity interaction (Kinase panel (DSF assay)) EUB0001559a AAK1. For orientation: In DSF a fluorescence change marks the thermal transition of the protein.
AP2-associated protein kinase 1, sequence (Q2M2I8 whole entry, looked up): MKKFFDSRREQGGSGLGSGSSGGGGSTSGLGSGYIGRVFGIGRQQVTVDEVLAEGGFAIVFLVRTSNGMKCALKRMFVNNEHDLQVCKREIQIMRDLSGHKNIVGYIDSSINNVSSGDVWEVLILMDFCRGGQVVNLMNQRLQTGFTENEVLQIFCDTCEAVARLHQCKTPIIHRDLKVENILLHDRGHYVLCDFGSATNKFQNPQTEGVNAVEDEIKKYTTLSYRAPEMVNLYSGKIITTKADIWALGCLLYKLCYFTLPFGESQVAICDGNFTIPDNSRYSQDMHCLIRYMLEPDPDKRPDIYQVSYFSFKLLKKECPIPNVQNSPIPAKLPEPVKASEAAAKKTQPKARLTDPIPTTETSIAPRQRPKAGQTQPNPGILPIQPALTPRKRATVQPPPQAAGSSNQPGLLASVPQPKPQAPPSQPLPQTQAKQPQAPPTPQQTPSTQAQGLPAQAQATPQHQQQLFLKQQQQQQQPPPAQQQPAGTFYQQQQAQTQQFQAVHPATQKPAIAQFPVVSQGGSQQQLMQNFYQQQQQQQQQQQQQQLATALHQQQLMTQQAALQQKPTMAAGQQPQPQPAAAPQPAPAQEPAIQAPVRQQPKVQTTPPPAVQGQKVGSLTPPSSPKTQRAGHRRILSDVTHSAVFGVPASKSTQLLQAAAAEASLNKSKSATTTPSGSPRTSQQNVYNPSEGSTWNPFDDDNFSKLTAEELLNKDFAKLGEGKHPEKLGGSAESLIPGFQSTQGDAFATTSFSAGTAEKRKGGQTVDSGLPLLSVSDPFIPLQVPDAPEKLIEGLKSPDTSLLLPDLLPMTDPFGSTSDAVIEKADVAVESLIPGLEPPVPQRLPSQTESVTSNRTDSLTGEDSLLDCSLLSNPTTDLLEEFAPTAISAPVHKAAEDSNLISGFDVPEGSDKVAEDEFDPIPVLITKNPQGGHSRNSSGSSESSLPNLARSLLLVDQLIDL
The target in test [7] is T3, Dual specificity protein kinase TTK (Homo sapiens) (UniProt P33981).
T3 sequence (whole entry): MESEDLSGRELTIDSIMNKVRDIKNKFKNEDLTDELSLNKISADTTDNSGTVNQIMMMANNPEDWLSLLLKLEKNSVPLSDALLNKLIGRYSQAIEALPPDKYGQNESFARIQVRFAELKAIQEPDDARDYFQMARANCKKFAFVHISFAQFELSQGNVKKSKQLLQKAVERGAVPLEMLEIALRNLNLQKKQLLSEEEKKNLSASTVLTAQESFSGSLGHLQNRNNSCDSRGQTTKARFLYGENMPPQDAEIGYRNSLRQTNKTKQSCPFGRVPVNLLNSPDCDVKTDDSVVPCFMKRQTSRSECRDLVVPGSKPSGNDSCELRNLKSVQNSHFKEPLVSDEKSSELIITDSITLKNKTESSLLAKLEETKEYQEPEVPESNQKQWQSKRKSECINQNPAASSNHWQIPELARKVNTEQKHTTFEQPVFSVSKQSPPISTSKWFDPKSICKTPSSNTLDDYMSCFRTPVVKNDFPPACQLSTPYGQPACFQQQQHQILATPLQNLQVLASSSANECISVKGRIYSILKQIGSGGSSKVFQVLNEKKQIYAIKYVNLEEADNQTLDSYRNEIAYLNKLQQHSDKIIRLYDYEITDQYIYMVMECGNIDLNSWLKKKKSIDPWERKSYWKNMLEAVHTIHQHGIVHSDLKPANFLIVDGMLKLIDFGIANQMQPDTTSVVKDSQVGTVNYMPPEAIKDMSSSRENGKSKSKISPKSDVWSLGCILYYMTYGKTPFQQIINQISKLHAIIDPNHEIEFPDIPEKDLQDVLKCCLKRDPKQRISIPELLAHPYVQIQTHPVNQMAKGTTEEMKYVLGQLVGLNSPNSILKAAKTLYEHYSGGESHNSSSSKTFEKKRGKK
Nature of the test: Selectivity interaction (KinomeScan (DiscoverX)) EUB0000045b TTK.

The source of these data is ChEMBL document CHEMBL5465560, “Selectivity Literature for EUbOPEN Chemogenomic Library” (2024).

SMILES strings stand for the structures.

LIM domain kinase 1 (Homo sapiens), sequence (P53667 whole entry, looked up, the tested form may be a part): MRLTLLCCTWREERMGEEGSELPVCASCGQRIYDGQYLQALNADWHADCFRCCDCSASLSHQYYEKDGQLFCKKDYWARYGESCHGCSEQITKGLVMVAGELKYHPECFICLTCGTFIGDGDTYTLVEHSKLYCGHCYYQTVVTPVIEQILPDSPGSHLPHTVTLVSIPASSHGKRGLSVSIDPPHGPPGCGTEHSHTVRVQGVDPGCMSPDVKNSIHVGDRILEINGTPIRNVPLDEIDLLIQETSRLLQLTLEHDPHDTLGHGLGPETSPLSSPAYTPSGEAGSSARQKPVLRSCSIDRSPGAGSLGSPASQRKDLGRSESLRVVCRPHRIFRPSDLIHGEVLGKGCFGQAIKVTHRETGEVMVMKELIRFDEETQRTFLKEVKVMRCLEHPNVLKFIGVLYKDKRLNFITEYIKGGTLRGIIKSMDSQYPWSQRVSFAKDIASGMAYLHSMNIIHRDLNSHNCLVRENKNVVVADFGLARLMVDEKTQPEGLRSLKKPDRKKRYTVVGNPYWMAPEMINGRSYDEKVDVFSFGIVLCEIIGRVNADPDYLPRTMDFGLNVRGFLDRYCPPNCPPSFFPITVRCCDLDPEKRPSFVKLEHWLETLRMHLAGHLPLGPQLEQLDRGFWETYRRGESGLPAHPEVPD
Dual specificity tyrosine-phosphorylation-regulated kinase 1B, sequence (Q9Y463 whole entry, looked up): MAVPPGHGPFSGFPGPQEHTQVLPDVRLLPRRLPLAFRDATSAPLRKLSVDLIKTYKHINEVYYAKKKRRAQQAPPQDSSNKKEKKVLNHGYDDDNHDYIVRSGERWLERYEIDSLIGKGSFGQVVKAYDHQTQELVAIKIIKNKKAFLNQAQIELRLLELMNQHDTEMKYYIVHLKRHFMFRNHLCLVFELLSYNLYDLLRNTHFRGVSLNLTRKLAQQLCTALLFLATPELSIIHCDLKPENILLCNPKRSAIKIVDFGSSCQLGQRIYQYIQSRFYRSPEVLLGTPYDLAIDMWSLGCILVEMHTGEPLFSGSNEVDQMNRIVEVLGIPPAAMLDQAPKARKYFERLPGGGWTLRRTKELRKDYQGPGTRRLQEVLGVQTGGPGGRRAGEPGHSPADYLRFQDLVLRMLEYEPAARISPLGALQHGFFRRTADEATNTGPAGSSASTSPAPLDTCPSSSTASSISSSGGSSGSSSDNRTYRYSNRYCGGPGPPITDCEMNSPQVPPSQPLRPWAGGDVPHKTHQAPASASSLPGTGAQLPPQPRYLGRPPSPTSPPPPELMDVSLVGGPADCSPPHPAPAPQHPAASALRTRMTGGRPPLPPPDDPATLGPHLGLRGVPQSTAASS
Aurora kinase B, sequence (Q96GD4 whole entry): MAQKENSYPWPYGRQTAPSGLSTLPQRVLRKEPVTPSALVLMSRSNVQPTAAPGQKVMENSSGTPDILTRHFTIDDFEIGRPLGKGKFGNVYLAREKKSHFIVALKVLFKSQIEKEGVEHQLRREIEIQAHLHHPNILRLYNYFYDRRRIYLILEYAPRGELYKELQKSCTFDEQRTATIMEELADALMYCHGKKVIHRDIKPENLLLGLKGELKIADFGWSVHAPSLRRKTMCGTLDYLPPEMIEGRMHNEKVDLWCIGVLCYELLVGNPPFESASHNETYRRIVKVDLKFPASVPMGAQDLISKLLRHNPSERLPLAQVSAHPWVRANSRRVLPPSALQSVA

As for `CN(C)C/C=C/C(=O)Nc1ccc(C(=O)N2CCCC(Nc3ncc(Cl)c(-c4c[nH]c5ccccc45)n3)C2)cc1` (centres undefined), the % of control in test [1] came to 100%.
`N#Cc1cccc(-c2c[nH]c3ncnc(N4CCOCC4)c23)c1` returned a % of control in test [2] of 21%.
`CCC(=O)N1CC[C@H](Nc2ncnc3c2CN(c2cnc(OC)c(C(F)(F)F)c2)CC3)C1` [LENIOLISIB]: in test [3], the IC50 (usually the concentration at which inhibition is half-maximal) was over 10 µM.
`CC[C@@H]1[C@H](F)C(=O)N[C@@H]1COc1nccc2cc(C(N)=O)c(OC)cc12` [ZIMLOVISERTIB] showed a % of inhibition at Aurora kinase B of 4.9%.
In turn, `COc1cc(Nc2nc(C)cc(-c3cnn4nc(OC)ccc34)n2)cc(C(F)(F)F)c1` returned a % of control in test [4] of 71%.
`CCC(=O)N1CCN(c2ccc(-n3c(=O)ccc4cnc5ccc(-c6cnc7ccccc7c6)cc5c43)cc2C(F)(F)F)CC1`: the % of control in test [5] amounted to 87%.
For the molecule `CN(C(=O)c1cnn2cccnc12)c1cc2c(cc1N1CCOCC1)C(=O)N(C[C@@H](F)C(C)(C)O)C2`, the dTM in test [6] is 0.3 K.
In the case of `C=CC(=O)Nc1cc(-n2c(=O)ccc3cnc4ccc(-c5ccc(NS(C)(=O)=O)cc5)cc4c32)ccc1C`, the % of control in test [7] (at 1 µM) turned out to be 100%; in test [7] (at 10 µM), 52%.
